One block for each molecule: values may come before it.
What was measured:
PHM [1] = target: T1, PHM (Rattus norvegicus, UniProt P14925); assay: PHM inactivation by the dilution method; assay type: biochemical; conditions: for Inactivation of PHM (qualitative): dilution method, in the presence of ascorbate and O2; for kinact/KI: pH 6, read-out: (kinact/KI)obs
T1 sequence (P14925 36-715 isoform P14925-2 limits assumed): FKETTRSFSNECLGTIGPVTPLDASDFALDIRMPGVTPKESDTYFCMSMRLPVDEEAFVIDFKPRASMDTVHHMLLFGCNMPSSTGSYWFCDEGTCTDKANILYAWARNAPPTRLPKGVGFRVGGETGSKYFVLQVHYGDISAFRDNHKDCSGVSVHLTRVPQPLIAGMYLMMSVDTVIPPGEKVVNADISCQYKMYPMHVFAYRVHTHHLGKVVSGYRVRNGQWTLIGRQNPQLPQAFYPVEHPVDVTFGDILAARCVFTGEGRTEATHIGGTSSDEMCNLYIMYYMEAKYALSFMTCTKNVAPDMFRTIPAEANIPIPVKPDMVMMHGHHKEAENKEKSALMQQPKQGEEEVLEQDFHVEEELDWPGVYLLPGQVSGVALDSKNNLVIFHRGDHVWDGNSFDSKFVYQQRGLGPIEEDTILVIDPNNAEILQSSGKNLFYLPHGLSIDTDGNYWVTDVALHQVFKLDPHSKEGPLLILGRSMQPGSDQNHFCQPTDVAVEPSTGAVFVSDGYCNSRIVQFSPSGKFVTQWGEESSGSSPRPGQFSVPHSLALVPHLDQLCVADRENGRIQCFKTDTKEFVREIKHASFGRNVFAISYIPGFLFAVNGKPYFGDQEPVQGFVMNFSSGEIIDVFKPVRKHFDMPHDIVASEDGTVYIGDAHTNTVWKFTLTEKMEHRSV

PHM [2] = conditions: cited from earlier work; for Km: PHM substrate; for Ki: PHM inactivator
PHM [3] = target: T1, PHM; assay: Inhibition of the PHM-dependent consumption of O2; assay type: biochemical
PHM [4] = target: T1, PHM; assay: Tiopronin protection against the cinnamate-mediated inactivation of PHM; assay type: biochemical; conditions: 60 μM tiopronin, 7.5 mM cinnamate, 2 h
[5] = tested on: dopamine β-monooxygenase (DβM); conditions: inactivation of DβM; cited from earlier work
P450 = conditions: inactivation of P450; cited from earlier work

- Inactivation of PHM (qualitative) (PHM [1]): inactivate PHM
- kinact/KI (PHM [1]): 0.5 M⁻¹ s⁻¹
Molecule: CN(C)c1ccc(C=CC(=O)O)cc1 [N,N-Dimethyl-4-aminocinnamic acid]

Molecule: O=C(O)CNC(=O)CCc1ccccc1 [hydrocinnamoylglycine, N-hydrocinnamoylglycine]
- Km (PHM [2]): 900 µM

Molecule: O=C(O)C=Cc1ccc2c(c1)OCO2 [3,4-Methylenedioxycinnamic acid]
- Ki (PHM [3]): 300 ± 40 µM

- Protection of PHM from cinnamate-mediated inactivation (PHM [4]): did protect PHM from inactivation
Molecule: CC(S)C(=O)NCC(=O)O (centres unmarked) [tiopronin]

- Inactivation of PHM (qualitative) (PHM [1]): inactivate PHM
- kinact/KI (PHM [1]): 1 M⁻¹ s⁻¹
- Ki (PHM [3]): 500 ± 60 µM
Molecule: Nc1ccc(C=CC(=O)O)cc1 [4-Aminocinnamic acid]

- Ki (PHM [3]): 200 ± 20 µM
Molecule: O=C(O)C=Cc1ccccc1C(F)(F)F [2-Trifluoromethylcinnamic acid]

Molecule: O=C(O)CNC(=O)C=Cc1ccccc1 [cinnamoylglycine, N-cinnamoylglycine]
- Km (PHM [2]): 200 µM

Molecule: phenyl(aminomethyl)ethane
- partition ratio, kcat/kinact [5]: 900

Molecule: O=C(O)/C=C/C(=O)c1ccccc1 [benzoylacrylate, trans-benzoylacrylate]
- Ki (PHM [2]): 200 µM

Molecule: O=C(O)C/C=C/c1ccccc1 [PBA, trans-4-phenyl-3-butenoate]
- Ki (PHM [2]): 50 µM

Molecule: C=CCC(C(N)=O)C(C)C (centres unmarked) [2-isopropyl-4-pentenamide]
- partition ratio (P450): 200–300

- Inactivation of PHM (qualitative) (PHM [1]): inactivate PHM
- kinact/KI (PHM [1]): 333 M⁻¹ s⁻¹
- (kinact/KI)obs relative to cinnamate (PHM [1]; ratio to the (kinact/KI)obs value for cinnamate): ~ 500 fold
Molecule: CN(C)c1cccc2c(S(=O)(=O)Nc3ccc(C=CC(=O)O)cc3)cccc12 [N-Dansyl-4-aminocinnamic acid]
